Laboratory results as given in article PMC9321043, “Synthesis, Structure–Activity Relationships, and Parasitological Profiling of Brussonol Derivatives as New Plasmodium falciparum Inhibitors” (Pharmaceuticals, 2022).

Columns and labels:
[1] = system: P. falciparum 3D7^r_MMV848 strain; assay: Resistance assessment, 3D7r-MMV848 strain; type: cell-based; conditions: Plasmodium falciparum
[2] = system: P. falciparum K1 strain; assay: Resistance assessment, K1 strain; type: cell-based; conditions: Plasmodium falciparum
[3] = system: P. falciparum TM90C6B strain; assay: Resistance assessment, TM90C6B strain; type: cell-based; conditions: Plasmodium falciparum
[4] = system: P. falciparum Dd2 strain; assay: Resistance assessment, Dd2 strain; type: cell-based; conditions: Plasmodium falciparum
[5] = system: P. falciparum; assay: Speed-of-action assay; type: cell-based, Plasmodium falciparum; conditions: for speed of action: IC50 compared after 24, 48 and 72 h of drug exposure; for time of parasite death (morphological development, pyknotic nuclei): highest concentration evaluated, Giemsa smears at 0, 24, 48, 72 h
Method: The speed-of-action assay assesses the inhibitory activity of the tested compounds after 24, 48, and 72 h of drug exposure. […] Moreover, to confirm the speed-of-action, the morphological development of the parasite in parallel with the IC50 assessment was verified. The parasites in the negative control wells developed according to the expected timeline (Figure 5a). […] Brussonol caused parasite death within the first 24 h of incubation as observed for artesunate (Figure 5a).
In this method, three 96-well plates were prepared by adding 180 µL of the parasite’s inoculum with 0.5% parasitemia and 2% hematocrit. A serial dilution of the compounds was added to each plate; the starting concentration for brussonol was 6× IC50, while for artesunate and pyrimethamine (fast- and slow-acting controls, respectively) were 10× IC50. In addition, a positive and negative control, which corresponded to parasite cultures with no addition of inhibitor and non-parasitized erythrocytes, respectively, were used for the parasite’s control growth. Each plate was treated for a different period (24, 48, or 72 h), and the first two plates were washed twice with fresh medium to remove the inhibitor, followed by incubation of 48 and 24 h, respectively. […] A statistical analysis using a one-way ANOVA test was done to compare each time point using GraphPad Prism version 8.0.1 for Windows, GraphPad Software, San Diego, California USA, www.graphpad.com, accessed on 1 February 2022. In parallel, the morphological development of the parasite under the compounds’ pressure was assessed by adding the compounds tested at the highest concentration evaluated. Blood smears of each well were made and stained at time points 0, 24, 48, and 72 h.

[6] = system: P. falciparum (3D7 strain); assay: In vitro antiplasmodial activity, P. falciparum blood-stage parasites, SYBR Green I; type: cell-based, Plasmodium falciparum; conditions: Plasmodium falciparum, 3D7, 3D7 strain, Table 2 strain panel; read-out: IC50
Method: The P. falciparum strains were cultivated in human blood cells (hRBC) O^+, while P. knowlesi was cultivated in rhesus red blood cells (rRBC) as described. P. falciparum complete RPMI (consisting of RPMI-1640, supplemented with 0.2% NaHCO3, 25 mM HEPES (pH 7.4), 11 mM D-glucose, 10 mg/L hypoxanthine, 25 mg/L gentamicin, and 0.5% (m/v) AlbuMAX II). The parasitemias of these cultures were maintained below 10% with 2.5% hematocrit. P. knowlesi complete RPMI (consisting of RPMI-1640 supplemented with 25 mM HEPES, […] hypoxanthine, 0.26% NaHCO3, 10 mg/L gentamicin, and 1% Albumax II). This culture was maintained with RBCs up to 5% hematocrit. The culture medium was changed daily, and all cultures were maintained under a 90% N2/5% CO2/5% O2 gas mixture at 37 °C. All compounds were purchased from Sigma-Aldrich (Cotia, Brazil).
The antiplasmodial activity of brussonol and derivatives was evaluated against P. falciparum blood parasites 3D7(chloroquine-sensitive). The parasites were synchronized through sterile 5% (m/v) D-sorbitol treatment over 10 min at 37 °C for the enrichment of ring stages. Centrifugation 600× g over 5 min was used to pellet the cultures. The parasitemia was determined by microscope analysis of thin blood smears stained with Giemsa 10% (v/v) after fixation with methanol. The initial parasitemia was calculated for 1000 red blood cells (RBCs), and cultures were diluted to 0.5% parasitemia and 2% hematocrit by the addition of the appropriate volumes of blood and medium. A total of 180 µL aliquots of parasites were distributed into 96-well plates followed by the addition of 20 µL of previously prepared aliquots of ten-fold concentrated compounds, the range of concentrations tested was 10–1.53 µM. Negative and positive control wells, which correspond to non-parasitized erythrocytes and parasite cultures in the absence of compounds, were set in parallel. The DMSO concentration was maintained below 0.05% (v/v) for all compounds except for brussonol, which was 0.5%. The plates were incubated for 72 h at 37 °C in a humidified incubator with a gas mixture of 90% N2, 5% O2, and 5% CO2. Each test was performed in duplicates, and the results were compared with the control cultures. Once completed incubation, the culture medium was removed, and the cells were resuspended in 100 µL PBS (116 mM NaCl, 10 mM NaH2PO4, 3 mM KH2PO4) and lysed with 100 µL lysis buffer (20 mM Tris base, 5 mM EDTA, 0.0008% (v/v) Triton X-100, 0.008% (m/v) saponin, pH 8.0) containing 0.002% (v/v) SYBR Green I. Plates were incubated for 30 min at room temperature, and a SpectraMAX Gemini EM plate reader (Molecular Devices Corp., Sunnyvale, CA) was used to determine the fluorescence corresponding to parasitic density (excitation at 485 nm, emission at 535 nm). The half-maximal inhibitory concentration (IC50^Pf) was determined by non-linear regression analysis of the resulting concentration–response curve using the software GraphPad Prism version 8.0.1 for Windows, GraphPad Software, San Diego, California USA, www.graphpad.com, accessed on 3 March 2022”.

[7] = system: hemozoin formation; assay: Hemozoin formation inhibition assay; type: biochemical; conditions: hemin 25 µM, pH 4.8, 4 h, one experiment in triplicate
Method: 2. Hemozoin Formation Inhibition Assay
The hemozoin formation inhibition assay was performed as described previously.12 Briefly, serial 1:3 dilutions, in a 96‐well plate, wit h brussonol were made in a final volume of 20 μL in a concentration 10 times higher than the final concentration of the assay. Secondly, 90 μ L of freshly prepared hemin (at a final concentration of 25 μM) solution in 1M NaOAc/HOAc buffer pH 4.8 were added followed by addition of 90 μ L of 5.4 mg/L Tween 20 solution freshly prepared. The plates were let to stand for 4 hours at 37 °C followed by resuspension with multichannel pippete and read at 415 and 630 nm using a SpectraMAX Plus 384 plate reader (Molecular Devices Corp., Sunnyvale, CA).
Due to the absence of enough compound, this experiment wa s performed only once, but with internal triplicate. Chloroquine (CQ) and pyrimethamine (PYR) were used as positive and negative control of inhibition, respectively.
Inhibition (%) = 100 – 100 x [(Aco ntro l – Asample) / (Acontrol - Amin)] Acontrol is the difference of the absorbance at 415 and 630 nm of the negative control (Hemin +, Tween 20 ‐, Compound ‐); Amin is the difference of the absorbance at 415 and 630 nm of the positive control (Hemin +, Tween 20 +, Compound ‐ ); Asample is the difference of the absorbance at 415 and 630 nm of the sample. The hemozoin formation inhibition assay was performed to evaluate if brussonol act inhibiting hemozoin formation in P. falciparum. CQ, which is a well‐known inhibitor of hemozoin […]
Figure S1. Hemozoin formation inhibition assay. Different concentrations of CQ (black triangles), PYR (red squares) and brussonol (blue circles) were incubated with heme in triplicates. Th e absorbance was recorded at 415/630 nm to determine the hemozoin formation inhibition. […]

C[C@H]1[C@H](OC(=O)CCC(=O)O)O[C@@H]2O[C@@]3(C)CC[C@H]4[C@H](C)CC[C@@H]1[C@@]24OO3 [artesunate]
IC50 [1]: 13 ± 8 nM
IC50 [2]: 7 ± 3 nM
IC50 [3]: 6 ± 2 nM
IC50 [4]: 11 ± 8 nM
speed of action [5]: fast-acting inhibitor
time of parasite death (morphological development, pyknotic nuclei) [5]: ≤ 24 h
IC50 [6]: 8 ± 4 nM

O=C1C(O)=C([C@H]2CC[C@H](c3ccc(Cl)cc3)CC2)C(=O)c2ccccc21 [atovaquone, reference compound]
IC50 [3]: 3000 ± 1000 nM
IC50 [6]: 0.7 ± 0.3 nM

CCc1nc(N)nc(N)c1-c1ccc(Cl)cc1 [pyrimethamine]
hemozoin formation inhibition (in words) [7]: no inhibition profile up to 1.4 mM
IC50 [2]: > 10000 nM
IC50 [4]: > 10000 nM
speed of action [5]: slow-acting inhibitor
time of parasite death (morphological development, pyknotic nuclei) [5]: at the 48 and 72 h time points
IC50 [6]: 60 ± 10 nM
